Measurements from patent US20220347167A1, “A NEW TREATMENT FOR MEIBOMIAN GLAND DYSFUNCTION” (The Schepens Eye Research Institute, Inc., priority 2019, published 2022).
“Also recorded” adds a separate entry of the source.

Assays:
[1] = test system: apolipoprotein E-deficient (ApoE −/−) mice; assay: MGD model in ApoE −/− mice: tear volume and meibomian gland size; type: in vivo, mouse; conditions: Roxa 10 mg/kg subcutaneous, three times per week for 12 weeks
Experimental: Two groups of ApoE KO mice (vehicle-treated ApoE −/−, as control, and Roxa-treated ApoE −/−), as well as wild-type C57BL/6J mice, were measured for weight, tear volume, corneal fluorescein staining and tear breakup time (TBUT). ApoE −/− mice were randomly divided into 2 groups (n=8 mice/group): control and Roxa-treated. The ApoE−/− mice were treated with vehicle control (2% DMSO in sterile saline, subcutaneous injection) or Roxa (10 mg/kg, subcutaneous injection). The injections were administrated three times/week; on Monday, Wednesday, and Friday mornings; for 12 weeks. At the end of the study, the weight, tear volume, corneal fluorescein staining and tear breakup time (TBUT) were weighted again for comparison. The bar chart in FIG. 6 compares mean tear volume of each group of mice after treatment.
After the Roxa treatment, as described in FIG. 6, the eyelids of each mouse were dissected to assess meibomian gland size and morphology. […]
At the beginning of the study, the 16 ApoE−/− mice and 4 wild-type (WT) C57BL/6J mice, 12 weeks of age, were measured for their weight, tear volume, corneal fluorescein staining and tear breakup time (TBUT). […] At the end of the study, the weight, tear volume, corneal fluorescein staining and tear breakup time (TBUT) were measured again. […]

[2] = test system: apolipoprotein E-deficient (ApoE −/−) mice; assay: Serum cholesterol in ApoE −/− mice (cholesterol fluorometric assay kit); type: in vivo, mouse; conditions: Roxa 10 mg/kg subcutaneous, three times per week for 12 weeks, vs vehicle, p<0.05
Experimental: The whole blood samples of mice were collected by cardiac puncture after sacrificing. The blood samples were allowed to clot by leaving it undisturbed at room temperature for 15 minutes. The clot was removed by centrifuging at 1,000-2,000×g for 10 minutes in a refrigerated centrifuge. The resulting supernatant was designated serum. Then the cholesterol level in the serum was evaluated by using a commercially available cholesterol fluorometric assay kit (#10007640, Cayman Chemical, Mich.). The weight of each mice was measured before and after the experiment. The percentage of weight gain was compared between the Roxa-treated mice and the vehicle-treated mice.
At the beginning of the study, the 16 ApoE−/− mice and 4 wild-type (WT) C57BL/6J mice, 12 weeks of age, were measured for their weight, tear volume, corneal fluorescein staining and tear breakup time (TBUT). The ApoE −/− mice were randomly divide into 2 groups (n=8 mice/group) and treated with vehicle control (2% DMSO in sterile saline, subcutaneous injection) or Roxa (10 mg/kg, subcutaneous injection). The injections were administrated three times per week (on Monday, Wednesday, and Friday mornings) for 12 weeks. […] At the end of the study, the weight, tear volume, corneal fluorescein staining and tear breakup time (TBUT) were measured again. […]

[3] = test system: IHMGECs; assay: Intracellular pH in IHMGECs; type: cell-based, human; conditions: exposure to Roxa, in vitro
Text: It was recently discovered that a hypoxic environment is beneficial for meibomian gland (MG) function. The mechanism(s) underlying this effect was unknown, but may be due to an increase in the levels of hypoxia-inducible factor 1α (HIF1a). In other tissues, HIF1α is the primary regulator of cellular responses to hypoxia and HIF1α expression can be induced by multiple stimuli, including hypoxia and low oxygen mimetic agents. In the current studies described in this Example, human eyelid tissues were stained for HIF1α. Immortalized human MG epithelial cells (IHMGECs) were cultured for varying time periods under normoxic (21% O2) or hypoxic (1% O2) conditions, in the presence or absence of the low oxygen mimetic agent Roxadustat (Roxa). IHMGECs were then processed for the analysis of cell number, HIF1α expression, lipid-containing vesicles, neutral and polar lipid content, DNase II activity and intracellular pH. […] The data support that the beneficial effect of hypoxia on the MG is mediated through an increased expression of HIF1α.

[4] = test system: IHMGECs; assay: Oil red O (ORO) staining of neutral lipid droplets in IHMGECs; type: cell-based, human
Experimental: Authenticated IHMGECs were grown and passaged in keratinocyte serum-free medium (KSFM) with 5 ng/mL epidermal growth factor (EGF) and 50 μg/mL bovine pituitary extract (BPE) (Thermo Fisher Scientific, Waltham, Mass.) under 21% O2 (normoxia) [Liu et al. (2010) Investigative ophthalmology & visual science 51:3993-4005; McDermott et al. (2018) Current eye research 43:1097-1101; Liu et al. (2013) Investigative ophthalmology & visual science 54:2541-2550]. Upon reaching 60% to 70% confluence, culture media were replaced by a 1:1 mixture of Dulbecco's modified Eagle's medium and Ham's F12 (DMEM/F12, Corning Life Sciences, Tewksbury, Mass.), supplemented with 10% fetal bovine serum (FBS, Atlanta Biologicals, Flowery Branch, Ga.) [Sullivan et al. (2014) Investigative ophthalmology & visual science 55:3866-3877; Liu et al. (2014) JAMA ophthalmology 132:226-228]. Cells were cultured for 4-10 days under 21% O2 (normoxic) or 1% O2 (hypoxic) conditions. […]
After four days of incubation, cells seeded on chamber slides (Corning, Rochester, N.Y.) were stained with 0.3% Oil red 0 (ORO, Fisher Biotec, Wembley, Wash., Australia) according to the published protocol in Liu et al. (2010) Investigative ophthalmology & visual science 51:3993-4005) and Liu et al. (2014) Toxicology 320:1-5. […] The size of the stained area was quantified using ImageJ [Deutsch et al. (2014) Anal Biochem 445:87-89]. […]

With Cc1nc(C(=O)NCC(=O)O)c(O)c2ccc(Oc3ccccc3)cc12 [Roxa, roxadustat] the tear volume ([1]; vs control group and WT mice, p<0.01) was “significantly increased”, the “meibomian gland loss in the mice eyelids (MG area)” value ([1]; vs control group, p<0.05) was “significantly reduced” and the serum cholesterol level [2] was “significantly reduced”. For the same compound, the “pH in IHMGECs” value [3] was “decreases”, the “accumulation of neutral lipid droplets in IHMGECs (area of ORO staining)” value ([4]; Roxa alone, 21% O2, 4 days) was “significantly increased; also recorded: duplicated the effect of a hypoxic environment” and the “accumulation of neutral lipid droplets in IHMGECs (area of ORO staining), combination of Roxa and 1% O2” value ([4]; Roxa in 1% O2, 4 days) was “significantly increased; also recorded: further increased”.
